Test results taken from paper PMC5924617 (European journal of medicinal chemistry, 2018).

Tests used:
[1] = system: innate immune genes including ISG54, ISG56, IL-8 and Groβ; test: poly; type: cell-based, human; conditions: for IC50: Homo sapiens, read-out: IC50 against all innate immune genes (range); for Inhibitory rates on immune genes' expression (all genes, text): 10 μM compound, ISG54, ISG56, IL-8, Groβ in hSAECs
[2] = In vivo pharmacokinetic profile in rats; conditions: PO 20 mg/kg
[3] = system: various receptors and enzymes including kinases such as IKK; test: Eurofins Cerep panel assays, off-target effects; conditions: tested concentration 10 μM; Table S1
[4] = Daily administration over one month in mice, toxicity; conditions: compound-treated mice
ISG54 = test: poly; type: cell-based, human
ISG56 = test: poly; type: cell-based, human; conditions: for Inhibitory rate (%) of ISG56 expression: 10 μM compound, poly(I:C)-induced, hSAECs; for inhibition at 10 µM: Homo sapiens, read-out: Inhibitory rate (%) of ISG56 expression
IL-8 = test: poly; type: cell-based, human; conditions: for inhibition at 10 µM: Homo sapiens, read-out: Inhibitory rate (%) of IL-8 expression
Groβ = test: poly; type: cell-based, human; conditions: for Inhibitory rate (%) of Groβ expression: 10 μM compound, poly(I:C)-induced, hSAECs; for inhibition at 10 µM: Homo sapiens, read-out: Inhibitory rate (%) of Groβ expression
[5] = 10 μM compound, poly(I:C)-induced, hSAECs

Cc1cc(/N=N/c2ccc3c(c2)CCC(=O)N3)c(N)cc1O [Compound 28, (E)-6-((2-Amino-4-hydroxy-5-methylphenyl)diazenyl)-3,4-dihydroquinolin-2(1H)-one]
IC50 [1]: 490 to 860 nM
Oral bioavailability [2]: not favorable

Cc1cc(/N=N/c2ccc(S(=O)(=O)NC3CCCC3)cc2)c(N)cc1O [Compound 35, (E)-4-((2-Amino-4-hydroxy-5-methylphenyl)diazenyl)-N-cyclopentylbenzenesulfonamide]
Off-target effects [3]: No significant off-target effects
IC50 [1]: 490 to 860 nM
Effects on hepatic, renal or pulmonary tissues, histological examination [4]: No discernable effects
Oral bioavailability [2]: not favorable

Cc1sc2c(c1C)C(c1ccc(Cl)cc1)=N[C@@H](CC(=O)OC(C)(C)C)c1nnc(C)n1-2 [(+)-JQ1, reference compound]
IC50 [1]: 1380 to 3850 nM

Methyl ((4-(5-(furan-3-yl)isoxazole-3-carboxamido)phenyl)sulfonyl)-L-prolinate [Compound 12]
Inhibitory rate (%) of ISG54 expression (ISG54; [5]): −114%
Inhibitory rate (%) of ISG56 expression (ISG56): −93%
Inhibitory rate (%) of IL-8 expression (IL-8; [5]): −86%
Inhibitory rate (%) of Groβ expression (Groβ): −98%

CCCc1cc(C(=O)Nc2ccc(S(=O)(=O)N3CCC[C@H]3C(=O)OC)cc2)no1 [Compound 11, Methyl ((4-(5-propylisoxazole-3-carboxamido)phenyl)sulfonyl)-L-prolinate]
inhibition at 10 µM (ISG54; Homo sapiens, read-out: Inhibitory rate (%) of ISG54 expression): -62%
inhibition at 10 µM (ISG56): -73%
inhibition at 10 µM (IL-8): -61%
inhibition at 10 µM (Groβ): -57%

COC(=O)[C@@H]1CCCN1S(=O)(=O)c1ccc(NCc2ccc(O)cc2)cc1 [Compound 15, Methyl ((4-((4-hydroxybenzyl)amino)phenyl)sulfonyl)-L-prolinate]
inhibition at 10 µM (ISG56): -17%
inhibition at 10 µM (Groβ): -12%

O=C1CCc2cc(NS(=O)(=O)c3ccc([N+](=O)[O-])cc3)ccc2N1 [Compound 27, 4-Nitro-N-(2-oxo-1,2,3,4-tetrahydroquinolin-6-yl)benzenesulfonamide]
inhibition at 10 µM (IL-8): -32%

5-Chloro-2-methoxy-N-(2-oxo-1,2,3,4-tetrahydroquinolin-6-yl)benzenesulfonamide [Compound 26]
Inhibitory rate (%) of ISG56 expression (ISG56): 56%
Inhibitory rate (%) of Groβ expression (Groβ): 56%

COC(=O)[C@@H]1CCCN1S(=O)(=O)c1ccc(N(C(=O)c2ccc(F)cc2)C(=O)c2ccc(F)cc2)cc1 [Compound 13, Methyl ((4-(4-fluoro-N-(4-fluorobenzoyl)benzamido)phenyl)sulfonyl)-L-prolinate]
Inhibitory rates on immune genes' expression (all genes, text) [1]: around 90%

COC(=O)[C@@H]1CCCN1S(=O)(=O)c1ccc(NC(=O)c2ccc(C(F)(F)F)cc2)cc1 [Compound 14, Methyl ((4-(4-(trifluoromethyl)benzamido)phenyl)sulfonyl)-L-prolinate]
Inhibitory rates on immune genes' expression (all genes, text) [1]: completely lost its activity

Cc1cc(/N=N/c2ccc(N3CCS(=O)(=O)CC3)cc2)c(N)cc1O [Compound 33, (E)-4-(4-((2-Amino-4-hydroxy-5-methylphenyl)diazenyl)phenyl)thiomorpholine 1,1-dioxide]
Inhibitory rates on immune genes' expression (all genes, text) [1]: inactive
